For assay [1], the system named is UT-7 cells (UT7/EPO). In words: Cell Proliferation Assay (AlamarBlue), UT-7. The class given is cell-based. Particulars: UT-7 assay, at or below 1000 micromolar compound concentration. The method, then:
UT-7 and FDC-P1 cell proliferation was assessed by AlamarBlue (BioSource International Inc., Camarillo, Calif. 93012, USA). Briefly, the cells were plated into 96-well Costar cell culture plate (Corning Incorporated, Corning, N.Y. 14831, USA) at 7000 cells/well and 4000 cells/well for UT7/EPO and FDC-P1 cell line, respectively. The test compound and/or vehicle was added to each well with a final concentration of 1% DMSO and incubated in an atmosphere of 5% CO2 at 37° C. for 66 hours. After a further 6 hour incubation in the presence of AlamarBlue, fluorescent intensity was measured using a SpectraMax Gemini (Molecular Devices, Sunnyvale, Calif. 94089, USA) plate reader, with excitation at 530 nm and emission at 590 nm. The Percent Increase=((RFU Test-RFU Medium)/(RFU Vehicle-RFU Medium)-1)*100. Recombinant human EPO (Research Diagnostics, Inc., Flanders, N.J. 07836, USA) was used in the assay as a positive control.

In assay [2] the target is receptors for EPO. To be noted: cited from earlier work.

Where two headings read alike, the source gives them in different places.

For the compound `CC(C)(C)c1ccc(COc2ccc(C[C@H](NC(=O)c3cc(Cl)ccc3NCc3cccc4ccccc34)C(=O)O)cc2)cc1` [Example 4, (2S)-3-[4-(4-tert-butyl-benzyloxy)-phenyl]-2-{5-chloro-2-[(naphthalen-1-ylmethyl)-amino]-benzoylamino}-propionic acid], the “cell proliferation (Percent Increase)” value in assay [1] is on record as less than 20%.

Take “EPO: 165 amino acid, 34 kilodalton (kDa) glycoprotein hormone regulating red blood cell production”: the Kd in assay [2] (high affinity receptor, read-out: Kd, high affinity receptors for EPO) is 0.075 to 0.1 nM; in assay [2] (low affinity receptor, read-out: Kd, low affinity receptors for EPO), 0.22 to 0.8 nM.

The values are drawn from US7501538B2, “Aryl and heteroaryl compounds, compositions and methods of use” (TransTech Pharma, Inc., priority 2003, dated 2009).
